Tests used:
Assay in all cases: Post-emergence foliage spray, pot culture, fresh weight inhibition (Tables 1-48, 51-98, 101-148; 24 days)
Type in all cases: in vivo
Abutilon theophrasti = system: Abutilon theophrasti
Method in brief: (§1)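 Greenhouse pot-grown weeds (15 per pot, 3 pots, 4 replicates) at the 5–6-leaf (grasses) or 6–7-leaf (broadleaf) stage were sprayed once on foliage at 450 kg/ha spray volume, 0.3 MPa. Acetone solutions were diluted in 0.1% Tween-80. Aboveground fresh weight versus blank control was recorded after 24 days.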

Alopecurus japonicus = system: Alopecurus japonicus
Method in brief: as §1

Capsella bursa-pastoris = system: Capsella bursa-pastoris
Method in brief: as §1

Eleusine indica = system: Eleusine indica
Method in brief: as §1

Ipomoea purpurea = details: Table 98
Method in brief: as §1

Ludwigia prostrate = system: Ludwigia prostrate
Method in brief: as §1

Setaria glauca = details: Table 84
Method in brief: as §1

Sonchus arvensis = system: Sonchus arvensis
Method in brief: as §1

[1] = system: Veronica persica^2 (collected in Zhumadian of Henan Province)
Method in brief: as §1

Amaranthus retroflexus = system: Amaranthus retroflexus
Method in brief: as §1

Conyza Canadensis = system: Conyza Canadensis
Method in brief: as §1

Eclipta prostrate = details: fresh weight inhibition after 24 days
Method in brief: as §1

Setaria viridis = details: A = A2 alone, g a.i./ha: r10 60, r11 60, r12 30, r13 30
Method in brief: as §1

C[C@@H](Oc1nc(F)c(Cl)c(N)c1Cl)C(=O)O [Compound A1]
Control effect (%) of A applied alone in corresponding dose (Abutilon theophrasti; A1 7.5 g a.i./ha): 44.3% | Control effect (%) of A applied alone in corresponding dose (Abutilon theophrasti; A1 15 g a.i./ha): 79.6% | Control effect (%) of A applied alone in corresponding dose (Alopecurus japonicus; A1 7.5 g a.i./ha): 25.6% | Control effect (%) of A applied alone in corresponding dose (Alopecurus japonicus; A1 15 g a.i./ha): 48.1% | Control effect (%) of A applied alone in corresponding dose (Alopecurus japonicus; A1 75 g a.i./ha): 25.6% | Control effect (%) of A applied alone in corresponding dose (Alopecurus japonicus; A1 150 g a.i./ha): 48.1% | Control effect (%) of A applied alone in corresponding dose (Capsella bursa-pastoris; A1 7.5 g a.i./ha): 36.2% | Control effect (%) of A applied alone in corresponding dose (Capsella bursa-pastoris; A1 15 g a.i./ha): 75.9% | Control effect (%) of A applied alone in corresponding dose (Eleusine indica; Table 79, 75 g a.i./ha): 24.4% | Control effect (%) of A applied alone in corresponding dose (Eleusine indica; Table 79, 150 g a.i./ha): 52.2% | Control effect (%) of A applied alone in corresponding dose (Eleusine indica; Table 82, 75 g a.i./ha): 24.4% | Control effect (%) of A applied alone in corresponding dose (Eleusine indica; Table 82, 150 g a.i./ha): 52.2% | Control effect (%) of A applied alone in corresponding dose (Eleusine indica; Table 83, 75 g a.i./ha): 24.4% | Control effect (%) of A applied alone in corresponding dose (Eleusine indica; Table 83, 150 g a.i./ha): 52.2% | Control effect (%) of A applied alone in corresponding dose (Ipomoea purpurea; 75 g a.i./ha): 37.7% | Control effect (%) of A applied alone in corresponding dose (Ipomoea purpurea; 150 g a.i./ha (r12), r13 prints 75 + 7.5, A:B 20:1): 59.5% | Control effect (%) of A applied alone in corresponding dose (Ludwigia prostrate; A1 75 g a.i./ha): 34.3% | Control effect (%) of A applied alone in corresponding dose (Ludwigia prostrate; A1 150 g a.i./ha): 72.4% | Control effect (%) of A applied alone in corresponding dose (Setaria glauca; 30 g a.i./ha): 34.7% | Control effect (%) of A applied alone in corresponding dose (Setaria glauca; 60 g a.i./ha): 57.6% | Control effect (%) of A applied alone in corresponding dose (Sonchus arvensis; A1 30 g a.i./ha): 33.3% | Control effect (%) of A applied alone in corresponding dose (Sonchus arvensis; A1 60 g a.i./ha): 70.7% | Control effect (%) of A applied alone in corresponding dose ([1]; Table 87, 75 g a.i./ha): 19.6% | Control effect (%) of A applied alone in corresponding dose ([1]; Table 87, 150 g a.i./ha): 42.4% | Control effect (%) of A applied alone in corresponding dose ([1]; Table 88, 75 g a.i./ha): 19.6% | Control effect (%) of A applied alone in corresponding dose ([1]; Table 88, 150 g a.i./ha): 42.4% | Control effect (%) of A applied alone in corresponding dose ([1]; Table 90, 75 g a.i./ha): 19.6% | Control effect (%) of A applied alone in corresponding dose ([1]; Table 90, 150 g a.i./ha): 42.4%

C[C@@H](Oc1nc(F)c(Cl)c(N)c1Cl)C(=O)OCC1CCCO1 (stereo partly drawn) [Compound A2]
Control effect (%) of A applied alone in corresponding dose (Amaranthus retroflexus; A2 75 g a.i./ha): 22.9% | Control effect (%) of A applied alone in corresponding dose (Amaranthus retroflexus; A2 150 g a.i./ha): 52.4% | Control effect (%) of A applied alone in corresponding dose (Conyza Canadensis; A2 75 g a.i./ha): 36.7% | Control effect (%) of A applied alone in corresponding dose (Conyza Canadensis; A2 150 g a.i./ha): 57.2% | Control effect (%) of A applied alone in corresponding dose (Eclipta prostrate; A 75 g a.i/ha): 32.3% | Control effect (%) of A applied alone in corresponding dose (Eclipta prostrate; A 150 g a.i/ha): 68.4% | Control effect (%) of A applied alone in corresponding dose (Setaria viridis; A2 alone at 30 g a.i./ha): 32.7% | Control effect (%) of A applied alone in corresponding dose (Setaria viridis; A2 alone at 60 g a.i./ha): 56.3%
